Measurements taken from PMC6591174, “The beneficial androgenic action of steroidal aromatase inactivators in estrogen-dependent breast cancer after failure of nonsteroidal drugs” (Cell Death & Disease, 2019).

Tests used:
MCF-7 cells = assay: Cell cycle analysis by flow cytometry; assay type: cell-based, human; conditions: 100 nM, 72 h
Description: Fig. 2 Proliferative response of cancer cells to indicated compounds. a–c the effect of concentrations of different compounds on the growth of the cells. Cells were cultured in 10% PRF-CT with E2 1 nM (MCF-7 and ZR-75-1) or without E2 (MDA-MB-231) for 3 days before plating. Cells were seeded in 96-well plates and 24 h later they were exposed to different concentrations (1 nM– 10 μM) of compounds for 6 days (MCF-7 and ZR-75-1) or 3 days (MDA-MB-231). Cell growth was measured as described in the “Materials and methods”. The proliferation of cells is expressed as the ratio of the cells compared with the control wells (untreated cells). d, e Influence of different compounds on the cell cycle of MCF-7 cells. MCF-7 cells were cultured in 10% PRF-CT with E2 (1 nM) for 3 days before plating. Cells were seeded in six-well plates and, the next day, starved in PRF for 24 h. Cells were exposed to different compounds at a concentration of 100 nM for 72 h, and then subjected to cell-cycle analysis as described in “Materials and methods”. f MCF-7 cells on poly-L-lysine-coated glass coverslips were exposed to compounds (100 nM) in 10% PRF-CT with 1 nM E2 for 72 h. Control cells were treated with vehicle. DAPI stains DNA, and the secondary anti-mouse antibody to detect the antibody bound to Ki-67 is labeled with the cyanine dye Cy3. The cells were stained with DAPI (blue). Immunofluorescence staining of Ki-67 of cells was observed using fluorescence microscope. Red: Ki-67; blue: nucleus.Typical image is shown. Scale bars: 10 μm. Data represent a mean ± SEM of three independent experiments, each in triplicate; bars, SEM. *P ≤ 0.05 vs. control
Cell cycle kinetics were studied by flow cytometry. MCF-7 cells were cultured in 10% PRF–CT with 1 nM E2 for 3 days prior to seeding on six-well plates (10^5 cells/well). Following seeding of cells, cells were serum starved for 24 h, and then treated with media containing 100 nM of the test compounds for 72 h. Cell-cycle analysis was performed as described by Ando[20].

[1] = test system: DMBA-induced mammary carcinoma; assay: DMBA-induced mammary carcinoma, topical treatment; assay type: in vivo, female Sprague-Dawley rats; conditions: cream 2.5% topically twice daily; for tumor growth: 4 weeks, ovariectomized rats given E2 1 μg/rat daily; for average tumor number after 28 days of treatment: 1.2 ± 0.15 at the beginning, control 4.3 ± 1.2
Description: Fig. 8 The effects of sterols on the DMBA-induced mammary carcinoma in rats. At an age of 50–54 days, female Sprague-Dawley rats were dosed intragastrically with 20 mg DMBA. when at least one tumor measuring 1 cm in diameter was found, the rats were ovariectomized and given intramuscular 1 μg/rat E2 daily. Animals were selected for experiments when at least one tumor per rat had reached a diameter of 1.5 cm. The skin covering the tumor was shaved and animals were divided into four groups. […] Untreated tumors served as controls. a Representative images of the tumors. b Tumor growth curve. c Average number of tumor nodules before and after treatment.The data represent six sets of independent experiments and are shown as the means ± SD. *P < 0.05, **P ≤ 0.01 vs. control group
At an age of 50–54 days, female Sprague-Dawley rats were dosed intragastrically with 20 mg DMBA (Sigma Chemical Co.) dissolved in peanut oil (1 ml/rat). Starting at 40 days after DMBA treatment, animals were examined weekly by palpation; when at least one tumor measuring 1 cm in diameter was found, the rats were ovariectomized using ether anesthesia and were given E2 (1 μg/rat) by daily intramuscular injection. Animals were selected for experiments when at least one tumor per rat had reached a diameter of 1.5 cm. Tumors were measured with calipers once a week, and their volume was calculated according to the following formula: volume = length × (width)^2 × 0.5. Rats were then divided into four groups of six animals each. […] All creams were applied for 4 weeks. […] Tumor growth in the control and treated groups was expressed as a value relative to the initial tumor volume, measured on the 1st day of treatment and taken as 1. At the beginning and end of the treatment period, the number of tumor nodules was counted.

[2] = target: T1, Rat AR ligand-binding domains (His-GST-ARLBD) (Rattus norvegicus, UniProt P15207); assay: AR fluorescence polarization-based competitive hormone-binding assay (PolarScreen AR Competitor Assay, Red); conditions: 25 nM His-GST-ARLBD, 2 nM Fluormone AL Red; read-out: IC50 of competitive binding to AR
T1 construct: purchased Invitrogen
T1 sequence (P15207 651-882 limits assumed): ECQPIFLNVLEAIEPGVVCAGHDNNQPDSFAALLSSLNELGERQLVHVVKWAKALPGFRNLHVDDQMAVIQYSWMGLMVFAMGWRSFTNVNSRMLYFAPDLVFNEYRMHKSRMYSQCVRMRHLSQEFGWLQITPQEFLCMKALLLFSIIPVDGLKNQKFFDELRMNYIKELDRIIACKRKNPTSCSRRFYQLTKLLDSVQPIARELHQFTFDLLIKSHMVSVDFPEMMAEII
Excerpt: Fig. 4 The affinity of indicated compounds to the AR and their regulation of AR transcriptional activity. a AR fluorescence polarization-based competitive hormone-binding assays. […] Curve fitting was done using GraphPad Prism software (version 7.00). […] ARE(3×)-regulated dual-luciferase activity in U2-OS cells under steroid-free conditions. Cells were transiently transfected with pcDNA3.1-AR and ARE3-luc2P (firefly luciferase reporter plasmids) and the internal normalization control pRL-TK (Renilla luciferase reporter plasmid). Six hours after transfection, cells were treated as indicated. Then they were assayed 48 h after transfection for dual-luciferase activity. […] Briefly, compounds were dissolved in DMSO and mixed at 2% (vol/vol) with AR Red Screening Buffer. The tested compounds were subsequently serially diluted in two-fold increments with AR Red Screening Buffer and mixed 1:1 (vol/vol) with a 2 × AR/Fluormone AL complex. Competition for binding AR between Fluormone AL and the tested compounds was allowed to come to equilibrium for 4 h and not more than 20 h at room temperature in the dark. Fluorescence polarization value (mP) was measured on a fluorescence polarization plate reader (Biotech cytation5). Each compound dose was performed in triplicate, relative error was calculated from the standard error of the mean (SEM), and curve fitting was performed using GraphPad Prism™ 7.0 software.

Compound | influence on the cell cycle (G1/G0 increase, S-phase decrease) (MCF-7 cells) | tumor growth [1] | average tumor number after 28 days of treatment [1] | IC50 [2] | appearance of new tumors at end of treatment ([1]; 28 days, vs control)
C[C@]12CCC(=O)C[C@@H]1CC[C@@H]1[C@@H]2CC[C@]2(C)[C@@H](O)CC[C@@H]12 [DHT, dihydrotestosterone] | most significant influence on the cell cycle | growth arrest | 2.25 ± 0.8 tumors per rat |  | 
C[C@]12CC[C@H]3[C@@H](CCC4=C(O)C(=O)CC[C@@]43C)[C@@H]1CC[C@@H]2O [4-OHT, 4-hydroxytestosterone] | most effective of the tested compunds | shrinkage of the tumor | 1.6 ± 0.4 tumors per rat | 18.2 nM | almost did not develop new tumors
C=C1C[C@H]2[C@@H]3CC[C@H](O)[C@@]3(C)CC[C@@H]2[C@@]2(C)C=CC(=O)C=C12 [17-HEXE, 17-hydroexemestane] |  | growth arrest | 2.85 ± 0.68 tumors per rat | 10.4 nM | 
